Experimental data from patent US20100247433A1, “Use of non-canonical amino acids as metabolic markers for rapidly-dividing cells” (California Institute of Technology, priority 2005, published 2010).
Entries after “also recorded” stand apart in the source; their conditions may differ. Where two headings read alike, the source gives them in different places.

Assays:
[1] = system: Dissociated hippocampal cultured neurons; assay: Toxicity of AHA by gross morphology of GFP-expressing neurons; type: cell-based, rat; conditions: 12 DIV neurons, 2 hrs, equimolar AHA or methionine control
Procedure: Dissociated hippocampal neuron cultures were prepared from newborn rat pups (PO) as outlined in (Banker and Goslin, 1990), Neurons were plated at a density of 15,000-45,000 cells/cm^2 onto poly-D-lysine coated cell culture dishes or onto poly-D-lysine and growth factor reduced matrigel (BD Biosciences) coated polycarbonate nets with a pore size of 3 μm (Transwell, Corning) for the preparation of isolated dendrites. The cultures were maintained and allowed to mature in growth medium (Neurobasal-A supplemented with B27 and GlutaMAX-1) for 14 to 21 days before use. […] To supplement glial neurotrophic factors, 25% conditioned growth media from glial and cortical cultures were added to the growth media. Isolated dendrites were obtained from Transwell cultures by removing the cell body layer with a sterile cell lifter after change to HBS. For immunolabeling after AHA-incorporation and cycloaddition with BiotinCyclooctyne, neurons are fixed at room temperature with 4% paraformaldehyde for 20 minutes. […] Images are recorded through standard emission filters at contrast settings for which the crossover between the two channels is negligible. […]

acute hippocampal slices = assay: AHA incorporation in acute hippocampal slices, Biotin-PEO tagging, Neutravidin, Western blot; type: cell-based, rat; conditions: 400 μm slices, varying concentrations of AHA, 1.5 hours
Procedure: These slices were recovered in artificial cerebrospinal fluid (ACSF) for at least 1 hour on organotypic membranes. Upon recovery, the slices were incubated with either a mixture of ^35S Met and ^35S Cys, or varying concentrations of AHA for 1.5 hours. FIG. 3C is a Western blot analysis for AHA-incorporated proteins from acute hippocampal slices. After AHA incorporation and slice homogenization, the homogenates were subjected to [3+2]-cycloaddition with a Biotin-PEO tag, and proteins incorporating AHA (and thus subsequently labeled by the Biotin-PEO labeling moiety) were concentrated using Neutravidin-conjugated beads (which binds the Biotin-PEO labeling moiety).

[2] = system: dendrites of hippocampal neurons; assay: Time-course of detection of newly synthesized proteins in dendrites; type: cell-based, rat
Procedure: (§1) Dissociated hippocampal neuron cultures were prepared from newborn rat pups (PO) as outlined in (Banker and Goslin, 1990), Neurons were plated at a density of 15,000-45,000 cells/cm^2 onto poly-D-lysine coated cell culture dishes or onto poly-D-lysine and growth factor reduced matrigel (BD Biosciences) coated polycarbonate nets with a pore size of 3 μm (Transwell, Corning) for the preparation of isolated dendrites. The cultures were maintained and allowed to mature in growth medium (Neurobasal-A supplemented with B27 and GlutaMAX-1) for 14 to 21 days before use. The use of this growth medium suppressed glial proliferation, which was even more reduced by application of Ara-C (5 μM final concentration). To supplement glial neurotrophic factors, 25% conditioned growth media from glial and cortical cultures were added to the growth media. Isolated dendrites were obtained from Transwell cultures by removing the cell body layer with a sterile cell lifter after change to HBS. For immunolabeling after AHA-incorporation and cycloaddition with BiotinCyclooctyne, neurons are fixed at room temperature with 4% paraformaldehyde for 20 minutes. Fixed cultures are then treated sequentially with PBS, blocking solution (0.2% Triton X-100, 2 mg/ml BSA, 5% Sucrose, 10% normal horse serum in PBS), primary Ab in blocking solution at 4° C. overnight, PBS-Tx (0.2% Triton X-100 in PBS), Alexa488- or Alexa568-conjugated secondary Ab in blocking solution, PBS-Tx and PBS. Immunostained specimens are imaged in PBS with an Olympus confocal microscope or two-photon microscope through either a 10× or a 63× oil-immersion lens. Alexa568 is excited at 543 nm and Alexa488 at 488 nm. Images are recorded through standard emission filters at contrast settings for which the crossover between the two channels is negligible.
Representative straightened dendrites of neurons (DIV 16) incubated with 4 mM AHA, 4 mM Methionine (Met) or AHA plus 40 μM anisomycin (Aniso) for time points indicated. The lookup table indicates fluorescence intensity. The left end is the proximal end, the right end is the distal end. […]

[3] = system: mammalian cells, primary neuronal cell cultures; assay: General properties of AHA in cell cultures (previous experiments and literature); type: cell-based
[4] = system: mammalian cells, primary neuronal cell cultures; conditions: Dieterich et al. 2006, cited from earlier work
HEK293 cells [5] = assay: Ubiquitin signal on Western blot of whole lysates (protein degradation/misfolding); type: cell-based; conditions: HEK293 cells treated two hours, compared to buffer or methionine controls
Procedure: To show the specificity of this technique for the detection of newly synthesized proteins, HEK293 cells were incubated for 2 hrs with AHA in the presence or absence of a protein synthesis inhibitor (Anisomycin or Cycloheximide). After incubation, cells were lysed and subjected to [3+2]cycloaddition with the biotin-bearing alkyne-linker Biotin-PEO-Propargylamide, followed by Western blot analysis with an anti-Biotin-antibody. […] The potential for increased protein degradation was measured by examining the ubiquitin signal strength on a Western blot from whole lysates of HEK293 cells, which were treated with AHA, methionine or incubation buffer for two hours.

[6] = system: dissociated hippocampal neurons; assay: Fluorescent tagging (TRA/FLA tag) of AHA- or HPG-incorporated proteins in neurons; type: cell-based, rat; conditions: 1 hour; for incorporation into neurons (fluorescent tag detection): DIV 17, 4 mM, 1 μM TRA or FLA tag
Procedure: as §1
In certain embodiments of the invention, two or more pairs of different non-natural amino acid/labeling reagents may be used to simultaneously or sequentially label the newly synthesized proteins. […]

[7] = system: hippocampal dysembryoplastic neuroepithelial tumor (DNT) tissue; assay: AHA labelling of newly synthesized proteins in freshly dissected DNT tumor versus control tissue, anti-biotin Western blot; type: cell-based, human; conditions: 4 mM AHA, 1 hour, 37° C., equal total protein; control lateral temporal cortex of the same patient
Procedure: FIG. 5: Detection of newly synthesized proteins in cells of acutely dissected human brain tissue. Tumor and control cells were trypsinized and triturated before incubation with 4 mM AHA for 1 hour at 37° C. After cell lysis and Cu(I)-catalyzed tagging with a biotin-FLAG-alkyne tag, samples were subjected to Neutravidin-purification to separate newly synthesized proteins from pre-existing proteins, and analyzed on a Western blot using an anti-biotin antibody. Same total protein amounts were used for both tumor and control tissue. Input: sample before affinity purification; Supernatant: unbound material after Neutravidin-purification; NA: Neutravidin.
Having obtained the proper conditions for labeling dissected tissues, Applicants repeated the experiments in freshly dissected human DNT tumor tissues and control tissues. […] As a control, non-diseased tissue (lateral temporal cortex) from the same patient was analyzed along with the DNT tissue.
Freshly dissected tumor and control tissue were obtained in operating room. To ensure optimal uptake of AHA, both tissues were trypsinized and triturated into single cells before treatment with AHA and deuterated 1-lysine. Incubation with AHA was done at 37° C. under constant agitation. The tissues were subsequently lysed in SDS and Tx-100 buffer, and the newly synthesized proteins were Neutravidin (NA)-purified. […]

HEK293 cells [8] = assay: Specificity of AHA labelling of newly synthesized proteins, anti-biotin Western blot after [3+2] cycloaddition; type: cell-based; conditions: 2 hrs with AHA plus inhibitor
Procedure: In embodiments using [3+2] Cycloaddition, the following exemplary protocol may be used. Briefly, AHA, Biotin-PEO-Propargylamide and the triazole ligand were prepared as described previously. The tandem featured alkyne tag was synthesized by GenScript Corporation. Biotin-Cyclooctyne is a generous gift from Carolyn Bertozzi. D10-L-leucine was purchased from Sigma. In all culture experiments, growth medium was removed from HEK293 cells, whole neuronal cultures or isolated dendrites were replaced with HEPES-buffered solution (HBS) with 2.86 mM AHA, and 2.86 mM methionine for control experiments. After incubation at 37° C., 5% CO2, cells were washed with PBS-MC (1 mM MgCl2, 0.1 mM CaCl2 in PBS) to remove excess amounts of AHA and methionine. SNS and other biochemical fractions are incubated with 2.86 mM AHA or 2.86 mM methionine under agitation at 37° C. and washed in StimBuffer after incubation. […]
To show the specificity of this technique for the detection of newly synthesized proteins, HEK293 cells were incubated for 2 hrs with AHA in the presence or absence of a protein synthesis inhibitor (Anisomycin or Cycloheximide). […] The potential for increased protein degradation was measured by examining the ubiquitin signal strength on a Western blot from whole lysates of HEK293 cells, which were treated with AHA, methionine or incubation buffer for two hours.

[N-]=[N+]=NCC[C@H](N)C(=O)O [AHA, azidohomoalanine]
toxicity to neurons (gross morphology, GFP expression in the dendritic arbor) [1]: not toxic to neurons
incorporation into newly synthesized proteins (biotinylated proteins after Neutravidin) (acute hippocampal slices): vast enrichment of biotinylated proteins
time at which AHA incorporation was visible ([2]; DIV 16, 4 mM AHA): 10 min
time by which whole neuron soma and dendrite was filled with AHA-labeled proteins ([2]; DIV 16, 4 mM AHA): ≤ 40 min
cell toxicity [3]: not toxic even in primary neuronal cell cultures; also recorded: undetected cell toxicity
membrane permeability [3]: excellent membrane permeability
protein degradation upon introduction of AHA ([3]; E. coli and mammalian cells): no evidence of increased protein degradation
global protein synthesis rates [4]: no evidence that AHA exposure alters global protein synthesis rates
ubiquitination of total protein ([4]; compared to buffer or methionine controls): no increase in the ubiquitination
cell toxicity ([4]; incl. primary cultured postnatal neurons): not toxic to cells
ubiquitination of total protein (HEK293 cells [5]): No increased ubiquitination
incorporation into neurons (fluorescent tag detection) [6]: successfully incorporated
level of protein synthesis by AHA labelling, tumor versus non-diseased tissue [7]: substantially higher in cells from tumor tissue

C[C@@H]1C[C@@H]([C@H](O)CC2CC(=O)NC(=O)C2)C(=O)[C@@H](C)C1 [Cycloheximide]
anti-biotin signal of AHA-labelled proteins in the presence of the protein synthesis inhibitor (HEK293 cells [8]): No signal was detected

COc1ccc(C[C@H]2NC[C@H](O)[C@H]2OC(C)=O)cc1 [Anisomycin, reference compound]
effect of the protein synthesis inhibitor on AHA labelling of dendrites ([2]; 40 μM with AHA): completely inhibited
effect of the protein synthesis inhibitor on AHA incorporation ([6]; 40 μM with 4 mM AHA): completely abolished AHA incorporation
anti-biotin signal of AHA-labelled proteins in the presence of the protein synthesis inhibitor (HEK293 cells [8]): No signal was detected

C#CCCC(N)C(=O)O (stereo not drawn) [HPG, Homopropargylglycine]
incorporation into neurons (fluorescent tag detection) [6]: successfully incorporated
